Laboratory results: PubChem BioAssay (NCI)
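Tested at 5 concentrations; 48 h exposure; 96-well plates; endpoints linearly interpolated, else capped at highest concentration. Definition used: TGI = concentration required for complete inhibition of growth.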

Assays:
Experiment in all cases: NCI-60 cell line screen, 48 h
KM12 colon = tested on: KM12 colon
HCC-2998 colon = tested on: HCC-2998 colon
OVCAR-8 ovarian = tested on: OVCAR-8 ovarian
SK-MEL-2 melanoma = tested on: SK-MEL-2 melanoma
CAKI-1 renal = tested on: CAKI-1 renal
MOLT-4 leukemia = tested on: MOLT-4 leukemia
RXF 393 renal = tested on: RXF 393 renal
SR leukemia = tested on: SR leukemia
T-47D breast = tested on: T-47D breast
786-0 renal = tested on: 786-0 renal
DU-145 prostate = tested on: DU-145 prostate

SMILES	TGI (KM12 colon) [µM]	TGI (HCC-2998 colon) [µM]	TGI (OVCAR-8 ovarian) [µM]	TGI (SK-MEL-2 melanoma) [µM]	TGI (CAKI-1 renal) [µM]	TGI (MOLT-4 leukemia) [µM]	TGI (RXF 393 renal) [µM]	TGI (SR leukemia) [µM]	TGI (T-47D breast) [µM]	TGI (786-0 renal) [µM]	TGI (DU-145 prostate) [µM]
CCOC(=O)C1(C#N)C(C#N)(C#N)C1(C#N)C#N	> 100	> 100	> 100	> 100	> 100	> 100	> 100	> 100	> 100	> 100	> 100
NC(Cc1ccccc1)c1nn[nH]n1 (stereo not given)	> 100		> 100	> 100	> 100		> 100	> 100	> 100	> 100	> 100
CC(=O)OCC1OC(OC(C)=O)C(Nc2ncc(-c3ccc(C)cc3)s2)C(OC(C)=O)C1OC(C)=O (stereo not given)		57.7	69.9	59.7	31.2	49.2	29.6	> 100	48.8	40.1	> 100
COC(=O)c1ccc(C)cc1C1CN=NC12Cc1cc(C)ccc1C2=O (stereo not given)	44.1	> 71.4	> 100	45.8	97.3	> 86.6	> 71.6	32.2	> 100	> 92.6	97.6
OCC1OC(n2cnc3c(SCc4ccccc4)ncnc32)C(O)C1O (stereo not given)	> 100	> 100	37.4	> 100	> 100	> 39.8	> 100	> 100	> 100	> 100	> 100
N#CCC1C2CC3C(C2=O)C13 (stereo not given)	> 100	> 100	> 100	> 100	> 100	> 100	> 100	> 100	> 100	> 100	> 100
Nc1nc(Br)nc2ncn(C3CC(O)C(CO)O3)c12 (stereo not given)	> 100	> 100	> 100	> 100	> 100	0.202	> 100	> 81	> 100	> 100	> 100
CCc1ccc(Nc2cc(=O)n(C)c(SCc3ccccc3)n2)cc1	> 100		> 100	> 100	> 100	> 100	> 100	> 100	> 100	34.4	> 100
COc1ccc(-n2c(Cn3nnc(-c4cccnc4)n3)nn(C3OC(COC(=O)c4ccccc4)C(OC(=O)c4ccccc4)C3OC(=O)c3ccccc3)c2=S)cc1 (stereo not given)	> 100	> 100	> 100	> 100	> 100	> 100	> 100	> 100	> 100	> 100	> 100
